Values after ≈ are worked out from the molar mass of the structure shown.
Legend:
Assay type in all cases: cell-based
[1] = system: human gastric cancer cell MKN45; assay: Cancer cell proliferation inhibition (sulforhodamine B staining), MKN45; details: MKN-45, 72 hours culture with test solution, DMEM medium containing 10% fetal bovine serum
Description: (§1) A test compound (20 mg) was dissolved in dimethyl sulfoxide (1 ml) and successively diluted into test solutions.
(§2) DMEM medium containing 10% fetal bovine serum was used for a human gastric cancer cell MKN45 and a human colon cancer cell LS180, and […] medium containing 10% fetal bovine serum was used for human lung cancer PC13.
(§3) 100 µl portions of the cell-culturing medium containing 3×10^3 cancer cells were put in a 96-hole microplate, culture was carried out under 5% CO2 at 37°C for 24 hours, 11 µl portions of the above test solution were added, the mixtures were subjected to culture under 5% CO2 at 37°C for further 72 hours, and then the cells were fixated with 50% trichloroacetic acid and stained with 0.4% sulforhodamine B. The dye was extracted from the stained cells with 10 mM Tris solution, and absorbance at 540 nm was measured and compared with that in the control group. […]

[2] = system: human colon cancer cell LS180; assay: Cancer cell proliferation inhibition (sulforhodamine B staining), LS180; details: 72 hours culture with test solution, DMEM medium containing 10% fetal bovine serum
Description: as §1, §2, §3

human lung cancer PC13 = assay: Cancer cell proliferation inhibition (sulforhodamine B staining), PC13; details: PC-13, 72 hours culture with test solution, RPMI-160 medium containing 10% fetal bovine serum
Description: as §1, §2, §3

IC50 [1]	IC50 [2]	IC50 (human lung cancer PC13)	SMILES
> 50 µg/mL	> 50 µg/mL	12.5 µg/mL (≈ 35 µM)	O=C1NC(=O)c2c1c1c3cccc(O)c3[nH]c1c1[nH]c3c(O)cccc3c21 [BE-13793C, 12,13-dihydro-1,11-dihydroxy-5H-indolo[2,3-a]pyrrolo[3,4-c]-carbazole-5,7(6H)-dione]
0.28 µg/mL (≈ 0.539 µM)	1.65 µg/mL (≈ 3.18 µM)	1.7 µg/mL (≈ 3.27 µM)	O=C1NC(=O)c2c1c1c3cccc(O)c3[nH]c1c1c2c2cccc(O)c2n1[C@@H]1O[C@H](CO)[C@@H](O)[C@H](O)[C@H]1O [Example 1, 12,13-dihydro-1,11-dihydroxy-13-(β-D-glucopyranosyl)-5H-indolo[2,3-a]pyrrolo[3,4-c]carbazole-5,7(6H)-dione]
